Measured values taken from patent US20240254114A1, “PREPARATION OF FUSED AZOLE DERIVATIVES AS NOVEL DIACYLGLYCERIDE 0-ACYLTRANSFERASE 2 INHIBITORS” (Merck Sharp & Dohme LLC, priority 2022, published 2024).
pIC50: −log10 of the molar value.

Molecular target: human DGAT2 (Homo sapiens (Human), UniProt Q96PD7)
Assay: DGAT2 Enzymatic Activity Assay
Details: Human DGAT2 IC50, hDGAT2 membrane prep from Sf-9 cells; 13C18-triolein product by LC/MS/MS

Sequence of human DGAT2 (Q96PD7 whole entry): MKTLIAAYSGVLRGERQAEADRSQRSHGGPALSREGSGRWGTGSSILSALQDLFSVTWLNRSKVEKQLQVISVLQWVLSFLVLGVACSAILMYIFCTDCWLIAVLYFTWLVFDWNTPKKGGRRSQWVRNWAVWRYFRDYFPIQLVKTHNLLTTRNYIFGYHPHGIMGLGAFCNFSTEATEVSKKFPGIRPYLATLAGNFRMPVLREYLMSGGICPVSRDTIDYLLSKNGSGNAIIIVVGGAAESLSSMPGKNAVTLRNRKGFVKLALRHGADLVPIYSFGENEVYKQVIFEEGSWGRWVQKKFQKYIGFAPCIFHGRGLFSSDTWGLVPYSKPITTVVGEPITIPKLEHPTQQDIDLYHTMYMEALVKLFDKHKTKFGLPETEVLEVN

pIC50	SMILES
8.70	CC1(NC(=O)c2nc3ccc(Oc4ncc(Cl)cc4OCC(F)F)nc3s2)CCS(=O)(=O)CC1 [Example 94, 5-((5-Chloro-3-(2,2-difluoroethoxy)pyridin-2-yl)oxy)-N-(4-methyl-1,1-dioxidotetrahydro-2H-thiopyran-4-yl)thiazolo[5,4-b]pyridine-2-carboxamide]
7.80	Cn1c(C(=O)NC2(C)CCS(=O)(=O)CC2)nc2cnc(Oc3ncc(Cl)cc3OCC(F)F)cc21 [Example 66, 6-((5-Chloro-3-(2,2-difluoroethoxy)pyridin-2-yl)oxy)-1-methyl-N-(4-methyl-1,1-dioxidotetrahydro-2H-thiopyran-4-yl)-1H-imidazo[4,5-c]pyridine-2-carboxamide]
7.07	Cn1c(C(=O)NC2(C)CCS(=O)(=O)CC2)nc2cc(Cl)c(Oc3ncc(Cl)cc3OCC(F)F)nc21 [Example 44, 6-chloro-5-((5-chloro-3-(2,2-difluoroethoxy)pyridin-2-yl)oxy)-3-methyl-N-(4-methyl-1,1-dioxidotetrahydro-2H-thiopyran-4-yl)-3H-imidazo[4,5-b]pyridine-2-carboxamide]
8.41	Cc1c(Oc2ncc(Cl)cc2OCC(F)F)ncc2nc(C(=O)NC3(C)CCS(=O)(=O)CC3)n(C)c12 [Example 78, 6-[[5-Chloro-3-(2,2-difluoroethoxy)-2-pyridyl]oxy]-1,7-dimethyl-N-(4-methyl-1,1-dioxo-thian-4-yl)imidazo[4,5-c]pyridine-2-carboxamide]
7.36	Cc1c(Oc2ncc(Cl)cc2OCC(F)(F)F)ccc2c1nc(C(=O)NC1(C)CCS(=O)(=O)CC1)n2C [Example 26, 5-((5-chloro-3-(2,2,2-trifluoroethoxy)pyridin-2-yl)oxy)-1,4-dimethyl-N-(4-methyl-1,1-dioxidotetrahydro-2H-thiopyran-4-yl)-1H-benzo[d]imidazole-2-carboxamide]
6.17	CC1(NC(=O)c2nc3ncc(Oc4ncccc4OCC(F)(F)F)cc3o2)CCS(=O)(=O)CC1 [Example 98, N-(4-methyl-1,1-dioxidotetrahydro-2H-thiopyran-4-yl)-6-((3-(2,2,2-trifluoroethoxy)pyridin-2-yl)oxy)oxazolo[4,5-b]pyridine-2-carboxamide]
8.36	Cc1cc(Oc2ncc(Cl)cc2OCC(F)F)nc2c1nc(C(=O)NC1(C)CCS(=O)(=O)CC1)n2C [Example 49, 5-[[5-chloro-3-(2,2-difluoroethoxy)-2-pyridyl]oxy]-3,7-dimethyl-N-(4-methyl-1,1-dioxo-thian-4-yl)imidazo[4,5-b]pyridin-4-ium-2-carboxamide]
8.11	Cc1c(Oc2ncc(Cl)cc2OCC(F)F)cnc2nc(C(=O)NC3(C)CCS(=O)(=O)CC3)n(C)c12 [Example 84, 6-[[5-Chloro-3-(2,2-difluoroethoxy)-2-pyridyl]oxy]-1,7-dimethyl-N-(4-methyl-1,1-dioxo-thian-4-yl)imidazo[4,5-b]pyridine-2-carboxamide]
8.66	Cn1c(C(=O)NC2(C)CCS(=O)(=O)CC2)nc2ccc(Oc3ncc(Cl)cc3OCC(F)(F)F)c(Cl)c21 [Example 23, 7-Chloro-6-((5-chloro-3-(2,2,2-trifluoroethoxy)pyridin-2-yl)oxy)-1-methyl-N-(4-methyl-1,1-dioxidotetrahydro-2H-thiopyran-4-yl)-1H-benzo[d]imidazole-2-carboxamide]
8.44	CC(C)n1c(C(=O)NC2(C)CCS(=O)(=O)CC2)nc2ccc(Oc3ncc(Cl)cc3OCC(F)F)nc21 [Example 52, 5-((5-chloro-3-(2,2-difluoroethoxy)pyridin-2-yl)oxy)-3-isopropyl-N-(4-methyl-1,1-dioxidotetrahydro-2H-thiopyran-4-yl)-3H-imidazo[4,5-b]pyridine-2-carboxamide]
9.22	Cc1c(Oc2ncc(Cl)cc2OCC(F)(F)F)ccc2nc(C(=O)NC3(C)CCS(=O)(=O)CC3)n(C)c12 [Example 25, 6-((5-chloro-3-(2,2,2-trifluoroethoxy)pyridin-2-yl)oxy)-1,7-dimethyl-N-(4-methyl-1,1-dioxidotetrahydro-2H-thiopyran-4-yl)-1H-benzo[d]imidazole-2-carboxamide]
8.57	Cn1c(C(=O)NC2(C)CCS(=O)(=O)CC2)nc2c(F)cc(Oc3ncc(Cl)cc3OCC(F)F)cc21 [Example 27, 6-((5-chloro-3-(2,2-difluoroethoxy)pyridin-2-yl)oxy)-4-fluoro-1-methyl-N-(4-methyl-1,1-dioxidotetrahydro-2H-thiopyran-4-yl)-1H-benzo[d]imidazole-2-carboxamide]
8.55	Cn1c(C(=O)NC2(C)CCS(=O)(=O)CC2)nc2ccc(OCC(OCC(F)F)C(F)F)nc21 (single isomer, unassigned) [Example 65b, 5-[2-(2,2-difluoroethoxy)-3,3-difluoro-propoxy]-3-methyl-N-(4-methyl-1,1-dioxo-thian-4-yl)imidazo[4,5-b]pyridine-2-carboxamide]
6.24	O=C(N[C@H]1CCCC(F)(F)[C@@H]1O)c1nc2ccc(Oc3ncc(Cl)cc3OCC(F)(F)F)cc2o1 [Example 1, 6-[[5-chloro-3-(2,2,2-trifluoroethoxy)-2-pyridyl]oxy]-N-[(1S,2R)-3,3-difluoro-2-hydroxy-cyclohexyl]-1,3-benzoxazole-2-carboxamide]

SMILES	pIC50
Cn1c(C(=O)NC2(C)CCS(=O)(=O)CC2)nc2ccc(OCC(CC(F)(F)F)OCC(F)F)nc21 (single isomer, unassigned) [Example 63a, 5-[2-(2,2-difluoroethoxy)-4,4,4-trifluoro-butoxy]-3-methyl-N-(4-methyl-1,1-dioxo-thian-4-yl)imidazo[4,5-b]pyridine-2-carboxamide]	7.30
Cn1c(C(=O)NC2(C)CCS(=O)(=O)CC2)nc2ccc(OCC(CC(F)(F)F)OCC(F)F)nc21 (single isomer, unassigned) [Example 63b, 5-[2-(2,2-difluoroethoxy)-4,4,4-trifluoro-butoxy]-3-methyl-N-(4-methyl-1,1-dioxo-thian-4-yl)imidazo[4,5-b]pyridine-2-carboxamide]	9.10

Same assay, conditions: read-out: Human DGAT2 IC50; hDGAT2 membrane prep from Sf-9 cells; 13C18-triolein product by LC/MS/MS

pIC50	SMILES
8.05	CCn1c(C(=O)NC2(C)CCS(=O)(=O)CC2)nc2ccc(Oc3ncc(Cl)cc3OCC(F)F)nc21 [Example 55, 5-((5-chloro-3-(2,2-difluoroethoxy)pyridin-2-yl)oxy)-3-ethyl-N-(4-methyl-1,1-dioxidotetrahydro-2H-thiopyran-4-yl)-3H-imidazo[4,5-b]pyridine-2-carboxamide]
7.54	Cc1cnc(Oc2ccc3nc(C(=O)NC4(C)CCS(=O)(=O)CC4)n(C)c3n2)c(OCC(F)F)c1 [Example 37, 5-[[3-(2,2-difluoroethoxy)-5-methyl-2-pyridyl]oxy]-3-methyl-N-(4-methyl-1,1-dioxo-thian-4-yl)imidazo[4,5-b]pyridine-2-carboxamide]
7.60	Cn1c(C(=O)NC2(C)CCS(=O)(=O)CC2)nc2cnc(Oc3ncc(F)cc3OCC(F)(F)F)nc21 [Example 89, 2-[[5-fluoro-3-(2,2,2-trifluoroethoxy)-2-pyridyl]oxy]-9-methyl-N-(4-methyl-1,1-dioxo-thian-4-yl)purine-8-carboxamide]
< 6.96	Cn1c(C(=O)NC2(C)CCS(=O)(=O)CC2)nc2ccc(Oc3ncccc3OCC(F)(F)F)nc21 [Example 34, 3-methyl-N-(4-methyl-1,1-dioxidotetrahydro-2H-thiopyran-4-yl)-5-((3-(2,2,2-trifluoroethoxy)pyridin-2-yl)oxy)-3H-imidazo[4,5-b]pyridine-2-carboxamide]
6.76	Cc1c(Oc2ncc(F)cc2OCC(F)(F)F)cnc2nc(C(=O)NC3(C)CCS(=O)(=O)CC3)n(C)c12 [Example 85, 6-[[5-fluoro-3-(2,2,2-trifluoroethoxy)-2-pyridyl]oxy]-1,7-dimethyl-N-(4-methyl-1,1-dioxo-thian-4-yl)imidazo[4,5-b]pyridine-2-carboxamide]
6.63	CC1(NC(=O)c2nc3ccc(Oc4ncc(Cl)cc4OCC(F)(F)F)cc3o2)CC(F)(F)C1 [Example 4]
6.63	Cn1c(C(=O)NC2(C)CCS(=O)(=O)CC2)nc2ccc(Oc3ncc(F)cc3OCC(C)(F)F)nc21 [Example 32, 5-[[3-(2,2-difluoropropoxy)-5-fluoro-2-pyridyl]oxy]-3-methyl-N-(4-methyl-1,1-dioxo-thian-4-yl)imidazo[4,5-b]pyridine-2-carboxamide]
6.87	CC1(NC(=O)c2nc3nc(Oc4ncc(Cl)cc4OCC(F)F)ccc3n2CC(F)F)CCS(=O)(=O)CC1 [Example 53, 5-((5-chloro-3-(2,2-difluoroethoxy)pyridin-2-yl)oxy)-1-(2,2-difluoroethyl)-N-(4-methyl-1,1-dioxidotetrahydro-2H-thiopyran-4-yl)-1H-imidazo[4,5-b]pyridine-2-carboxamide]
8.16	Cn1c(C(=O)NC2(C)CCS(=O)(=O)CC2)nc2cnc(Oc3ncc(F)cc3OCC(F)F)cc21 [Example 72, 6-[[3-(2,2-difluoroethoxy)-5-fluoro-2-pyridyl]oxy]-1-methyl-N-(4-methyl-1,1-dioxo-thian-4-yl)imidazo[4,5-c]pyridine-2-carboxamide]
6.33	O=C(N[C@H]1CCOC1)c1nc2ccc(Oc3ncccc3OCC(F)(F)F)cc2s1 [Example 93, N-[(3S)-tetrahydrofuran-3-yl]-6-[[3-(2,2,2-trifluoroethoxy)-2-pyridyl]oxy]-1,3-benzothiazole-2-carboxamide]
5.85	CO[C@]1(C(F)(F)F)C[C@@H](NC(=O)c2nc3ccc(Oc4ncc(Cl)cc4OCC(F)(F)F)cc3o2)C1 [Example 7, 6-[[5-chloro-3-(2,2,2-trifluoroethoxy)-2-pyridyl]oxy]-N-[3-methoxy-3-(trifluoromethyl)cyclobutyl]-1,3-benzoxazole-2-carboxamide]
7.47	Cn1c(C(=O)NC2(C)CCS(=O)(=O)CC2)nc2cc(F)c(Oc3ncc(F)cc3OCC(C)(F)F)nc21 [Example 43, 5-[[3-(2,2-difluoropropoxy)-5-fluoro-2-pyridyl]oxy]-6-fluoro-3-methyl-N-(4-methyl-1,1-dioxo-thian-4-yl)imidazo[4,5-b]pyridine-2-carboxamide]
